Like-named read-outs stand apart in the source and are kept apart here.
Columns and labels:
SNB-75 = experiment: cells; type: cell-based; conditions: Homo sapiens
M14 = experiment: NCI 60 cell line panel screening assay (SRB), M14; conditions: Homo sapiens, M14, 48 h; for CC50: read-out: Log10 LC50 (converted)
SN12C = experiment: NCI 60 cell line panel screening assay (SRB), SN12C; type: cell-based; conditions: Homo sapiens, 48 h; for IC (TGI): renal cancer, read-out: Log10 TGI
UACC-62 = experiment: cells; type: cell-based; conditions: Homo sapiens, UACC-62, melanoma, 48 h; for GI50: read-out: Log10 GI50 (converted); for IC (TGI): read-out: Log10 TGI
CCRF-CEM = experiment: cells; type: cell-based; conditions: Homo sapiens, leukemia, 48 h, read-out: Log10 LC50 (converted)
NCI-H226 = experiment: cells; type: cell-based; conditions: Homo sapiens
SK-OV-3 = experiment: cells; type: cell-based; conditions: Homo sapiens
A498 = experiment: cells; type: cell-based; conditions: Homo sapiens; for IC (TGI): read-out: Log10 TGI
NCI-H23 = experiment: cells; type: cell-based; conditions: Homo sapiens, NCI-H23, non-small cell lung cancer, 48 h
HOP-92 = experiment: cells; type: cell-based; conditions: Homo sapiens
T-47D = experiment: NCI 60 cell line panel screening assay (SRB), T-47D; conditions: Homo sapiens, T47D, 48 h
DU-145 = experiment: cells; type: cell-based; conditions: Homo sapiens, DU-145, 48 h
RXF 393 = experiment: cells; type: cell-based; conditions: Homo sapiens; for IC (TGI): RXF 393, renal cancer, 48 h, read-out: Log10 TGI
SF-268 = experiment: cells; type: cell-based; conditions: Homo sapiens
MOLT-4 = experiment: cells; conditions: Homo sapiens; for IC50: MOLT-4, read-out: concentration for primary growth inhibition (PG +50)
TK-10 = experiment: cells; type: cell-based; conditions: Homo sapiens
HCT-15 = experiment: cells; type: cell-based; conditions: Homo sapiens
K-562 = experiment: cells; type: cell-based; conditions: Homo sapiens, K562, K-562, leukemia, 48 h
UACC-257 = experiment: cells; type: cell-based; conditions: Homo sapiens, UACC-257, 48 h; for IC (TGI): read-out: Log10 TGI (converted)
NCI-H322M = experiment: cells; conditions: Homo sapiens, 48 h, read-out: Log10 LC50 (converted)
OVCAR-5 = experiment: cells; type: cell-based; conditions: Homo sapiens; for GI50: read-out: Log10 GI50 (converted)
SK-MEL-28 = experiment: cells; type: cell-based; conditions: Homo sapiens
60 cell line panel = experiment: NCI 60 cell line panel, whole panel; conditions: panel
HT29 = experiment: cells; type: cell-based; conditions: Homo sapiens
SR = experiment: cells; type: cell-based; conditions: Homo sapiens, 48 h; for CC50: read-out: Log10 LC50 (converted)
HCT-116 = experiment: cells; type: cell-based; conditions: Homo sapiens, HCT-116, 48 h
BT-549 = experiment: cells; type: cell-based; conditions: Homo sapiens, BT-549, 48 h, read-out: Log10 LC50 (converted)
SW-620 = experiment: NCI 60 cell line panel screening assay (SRB), SW-620; type: cell-based; conditions: Homo sapiens; SW-620, colon cancer, 48 h; read-out: Log10 GI50 (converted)
PC-3 = experiment: cells; type: cell-based; conditions: Homo sapiens; PC-3, prostate cancer, 48 h; read-out: Log10 TGI
RPMI-8226 = experiment: NCI 60 cell line panel screening assay (SRB), RPMI-8226; type: cell-based; conditions: Homo sapiens; RPMI-8226, leukemia, 48 h; read-out: Log10 GI50 (converted)
[1] = read-out: Log10 LC50 (converted)
[2] = read-out: Log10 GI50 (converted)
[3] = read-out: Log10 TGI (converted)

C[C@H]1[C@@H](F)O[C@@H]2O[C@@]3(C)CC[C@H]4[C@H](C)CC[C@@H]1[C@@]24OO3 [Compound VI, 10β-Fluoro-10-deoxoartemisinin]
CC50 (SNB-75; SNB-75, 48 h, read-out: Log10 LC50 (converted)): > 100 µM
IC (TGI) (SNB-75; SNB-75, CNS cancer, 48 h, read-out: Log10 TGI): > 100 µM
CC50 (M14): > 100 µM
IC (TGI) (M14; read-out: Log10 TGI): > 100 µM
CC50 (SN12C; [1]): > 100 µM
IC (TGI) (SN12C): > 100 µM
GI50 (UACC-62): 2.34 µM
IC (TGI) (UACC-62): > 100 µM
CC50 (CCRF-CEM): > 100 µM
CC50 (NCI-H226; NCI-H226, 48 h, read-out: Log10 LC50 (converted)): > 100 µM
IC (TGI) (NCI-H226; NCI-H226, non-small cell lung cancer, 48 h, read-out: Log10 TGI): > 100 µM
CC50 (SK-OV-3; SK-OV-3, 48 h, read-out: Log10 LC50 (converted)): > 100 µM
GI50 (SK-OV-3; SK-OV-3, ovarian cancer, 48 h, read-out: Log10 GI50 (converted)): 24 µM
IC (TGI) (SK-OV-3; SK-OV-3, ovarian cancer, 48 h, read-out: Log10 TGI (converted)): > 100 µM
CC50 (A498; A498, 48 h, read-out: Log10 LC50 (converted)): > 100 µM
IC (TGI) (A498; A498, renal cancer, 48 h): > 100 µM
CC50 (NCI-H23; [1]): > 100 µM
CC50 (HOP-92; HOP-92, 48 h, read-out: Log10 LC50 (converted)): > 100 µM
IC (TGI) (HOP-92; HOP-92, non-small cell lung cancer, 48 h, read-out: Log10 TGI (converted)): 21.4 µM
CC50 (T-47D; [1]): > 100 µM
CC50 (DU-145; [1]): > 100 µM
GI50 (DU-145; [2]): 19.5 µM
IC (TGI) (DU-145; read-out: Log10 TGI): > 100 µM
CC50 (RXF 393; RXF 393, 48 h, read-out: Log10 LC50 (converted)): > 100 µM
IC (TGI) (RXF 393): > 100 µM
CC50 (SF-268; SF-268, 48 h, read-out: Log10 LC50 (converted)): > 100 µM
IC (TGI) (SF-268; SF-268, CNS cancer, 48 h, read-out: Log10 TGI): > 100 µM
CC50 (MOLT-4; MOLT-4, 48 h, read-out: Log10 LC50 (converted)): > 100 µM
CC50 (MOLT-4; MOLT-4, read-out: concentration for cytotoxicity (PG -50)): > 100 µM
IC50 (MOLT-4): ~0.1 µM
CC50 (TK-10; TK-10, 48 h, read-out: Log10 LC50 (converted)): > 100 µM
CC50 (HCT-15; HCT-15, 48 h, read-out: Log10 LC50 (converted)): > 100 µM
CC50 (K-562; [1]): > 100 µM
CC50 (UACC-257; [1]): > 100 µM
IC (TGI) (UACC-257): > 100 µM
CC50 (NCI-H322M): > 100 µM
CC50 (OVCAR-5; OVCAR-5, 48 h, read-out: Log10 LC50 (converted)): > 100 µM
GI50 (OVCAR-5; OVCAR-5, ovarian cancer, 48 h): 17 µM
IC (TGI) (OVCAR-5; OVCAR-5, ovarian cancer, 48 h, read-out: Log10 TGI (converted)): > 100 µM
CC50 (SK-MEL-28; SK-MEL-28, 48 h, read-out: Log10 LC50 (converted)): > 100 µM
IC (TGI) (SK-MEL-28; SK-MEL-28, melanoma, 48 h, read-out: Log10 TGI): > 100 µM
Delta of Log10 TGI (60 cell line panel): 1.18
Range of Log10 TGI (60 cell line panel): 1.56
CC50 (HT29; HT-29, 48 h, read-out: Log10 LC50 (converted)): > 100 µM
IC (TGI) (HT29; HT-29, printed H129, colon cancer, 48 h, read-out: Log10 TGI): > 100 µM
CC50 (SR): > 100 µM
IC (TGI) (HCT-116; [3]): > 100 µM
CC50 (BT-549): > 100 µM

C[C@@H]1CC[C@H]2[C@@H](C)C(=O)O[C@@H]3O[C@@]4(C)CC[C@@H]1[C@]32OO4 [Artemisinin]
GI50 (SNB-75; SNB-75, CNS cancer, 48 h, read-out: Log10 GI50 (converted)): > 100 µM
CC50 (M14): > 100 µM
IC (TGI) (SN12C): > 100 µM
GI50 (UACC-62): > 100 µM
IC (TGI) (UACC-62): > 100 µM
GI50 (SW-620): > 100 µM
GI50 (NCI-H226; NCI-H226, non-small cell lung cancer, 48 h, read-out: Log10 GI50 (converted)): > 100 µM
GI50 (A498; A498, renal cancer, 48 h, read-out: Log10 GI50 (converted)): > 100 µM
IC (TGI) (A498; A498, renal cancer, 48 h): > 100 µM
GI50 (NCI-H23; [2]): > 100 µM
IC (TGI) (PC-3): > 100 µM
GI50 (HOP-92; HOP-92, non-small cell lung cancer, 48 h, read-out: Log10 GI50 (converted)): > 100 µM
IC (TGI) (T-47D; read-out: Log10 TGI): > 100 µM
IC (TGI) (RXF 393): > 100 µM
GI50 (RPMI-8226): > 100 µM
GI50 (MOLT-4; MOLT-4, 48 h, read-out: Log10 GI50 (converted)): 18.6 µM
IC (TGI) (MOLT-4; MOLT-4, 48 h, read-out: Log10 TGI): 100 µM
IC50 (MOLT-4): > 100 µM
GI50 (TK-10; TK-10, renal cancer, 48 h, read-out: Log10 GI50 (converted)): > 100 µM
IC (TGI) (TK-10; TK-10, renal cancer, 48 h, read-out: Log10 TGI): > 100 µM
GI50 (HCT-15; HCT-15, colon cancer, 48 h, read-out: Log10 GI50 (converted)): > 100 µM
IC (TGI) (HCT-15; HCT-15, colon cancer, 48 h, read-out: Log10 TGI): > 100 µM
IC (TGI) (K-562; [3]): 100 µM
GI50 (UACC-257; [2]): > 100 µM
IC (TGI) (UACC-257): > 100 µM
GI50 (OVCAR-5; OVCAR-5, ovarian cancer, 48 h): > 100 µM
GI50 (SK-MEL-28; SK-MEL-28, melanoma, 48 h, read-out: Log10 GI50 (converted)): > 100 µM
Delta of Log10 LC50 (60 cell line panel): -4.00
Range of Log10 TGI (60 cell line panel): 0.06
GI50 (HT29; HT-29, HT29, colon cancer, 48 h, read-out: Log10 GI50 (converted)): > 100 µM
CC50 (SR): > 100 µM
GI50 (SR; leukemia, read-out: Log10 GI50 (converted)): > 100 µM
GI50 (HCT-116; [2]): 100 µM

From US6160004A, “C-10 carbon-substituted artemisinin-like trioxane compounds having antimalarial, antiproliferative and antitumor activities” (priority 1998, dated 2000)
